Source: paper PMC11012124, “Synthesis of Novel Triazine-Based Chalcones and 8,9-dihydro-7H-pyrimido[4,5-b][1,4]diazepines as Potential Leads in the Search of Anticancer, Antibacterial and Antifungal Agents” (International Journal of Molecular Sciences, 2024)
Converted amounts (≈) assume the structure as drawn.

Key:
A. flavus (ATCC 9170) = test: Antifungal broth microdilution (CLSI); type: cell-based; conditions: ATCC9170; Afl: Aspergillus flavus
Outline: (§1)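 Broth microdilution followed CLSI M27-A3 for yeasts and the filamentous-fungi reference method, in 200 μL final volume with DMSO-matched growth controls. Plates were incubated in the dark and humid at 30 °C for a time suited to each fungus; testing was done in triplicate.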

[1] = system: A. fumigatus (ATCC 26934); test: Antifungal broth microdilution (CLSI); type: cell-based; conditions: ATCC26934; Afu: Aspergillus fumigatus
Outline: as §1

A. niger (ATCC 9029) = test: Antifungal broth microdilution (CLSI); type: cell-based; conditions: ATCC9029; Ani: Aspergillus niger
Outline: as §1

[2] = system: Candida albicans (ATCC 10231); test: Antifungal broth microdilution (CLSI); type: cell-based; conditions: ATCC10231; Ca: Candida albicans
Outline: as §1

[3] = system: Cryptococcus neoformans (ATCC 32264); test: Antifungal broth microdilution (CLSI); type: cell-based; conditions: ATCC32264; Cn: Cryptococcus neoformans
Outline: as §1

[4] = system: Trichophyton mentagrophytes (CCC 202-2000); test: Antifungal broth microdilution (CLSI); type: cell-based; conditions: Tm: Trichophyton mentagrophytes
Outline: as §1

[5] = system: Trichophyton rubrum (CCC 134-2000); test: Antifungal broth microdilution (CLSI); type: cell-based; conditions: Tr: Trichophyton rubrum
Outline: as §1

MOLT-4 = conditions: MOLT-4, 48 h
U251 = conditions: U251, 48 h
LOX IMVI = conditions: 48 h; for GI50: LOX IMVI
Galleria mellonella = test: Toxicity in the Galleria mellonella model; conditions: G. mellonella larvae, at the higher doses
Description: G mellonella larvae were cultivated in the laboratory and healthy, beige larvae weighing 150–200 mg, were selected for toxicity assays.

CCRF-CEM = conditions: 48 h
K-562 = conditions: K-562, 48 h
SR = conditions: 48 h
SF-539 = conditions: human, 48 h
[6] = system: human red blood cells (huRBC); test: Hemolytic activity, spectrophotometric; type: cell-based; conditions: 200 μg/mL, 24 h, 37 °C
S. aureus ATCC 43300 = test: Antibacterial MIC, microdilution; type: cell-based; conditions: Staphylococcus aureus; S. aureus ATCC 43300 (MRSA)

Compound: COc1cc(/C=C/C(=O)c2cc(OC)c(OC)c(OC)c2)ccc1Oc1nc(Nc2ccc(F)cc2)nc(N(C)C)n1 [21d]
- MIC (A. flavus (ATCC 9170)): > 250 µg/mL
- MIC [1]: > 250 µg/mL
- MIC (A. niger (ATCC 9029)): 125 µg/mL (≈ 217 µM)
- MIC [2]: > 250 µg/mL
- MIC [3]: > 250 µg/mL
- MIC [4]: > 250 µg/mL
- MIC [5]: 125 µg/mL (≈ 217 µM)
- GI50 (MOLT-4): 470 nM
- GI50 (U251): 500 nM
- GI50 (LOX IMVI): 480 nM
- mortality (Galleria mellonella): ≤ 25%

Compound: COc1cc(/C=C/C(=O)c2ccccc2)ccc1Oc1nc(Nc2ccc(F)cc2)nc(N(C)C)n1 [21a]
- mortality (Galleria mellonella): ≤ 25%

Compound: Nc1nc(N)c2c(n1)NC(c1ccc(F)cc1)CC(c1ccc(Nc3nc(NCCO)nc(Nc4ccc(Cl)cc4)n3)cc1)=N2 (stereo not shown) [33f]
- GI50 (CCRF-CEM): 750 nM
- GI50 (K-562): 490 nM
- GI50 (MOLT-4): 530 nM
- GI50 (SR): 670 nM

Compound: COc1cc(/C=C/C(=O)c2ccc(S(=O)(=O)NCCNc3nc(Nc4ccc(F)cc4)nc(N(C)C)n3)cc2)cc(OC)c1OC [24d]
- CC50 (SF-539): 5620 nM
- CC50 (LOX IMVI; human): 5930 nM

Compound: CN(C)c1nc(NCCNS(=O)(=O)c2ccc(C(=O)/C=C/c3ccc(Cl)cc3)cc2)nc(N2CCOCC2)n1 [23e]
- MIC (A. flavus (ATCC 9170)): > 250 µg/mL
- MIC [1]: > 250 µg/mL
- MIC (A. niger (ATCC 9029)): > 250 µg/mL
- MIC [2]: 250 µg/mL (≈ 437 µM)
- MIC [3]: 250 µg/mL (≈ 437 µM)
- MIC [4]: > 250 µg/mL
- MIC [5]: 125 µg/mL (≈ 218 µM)

Compound: COc1ccc(/C=C/C(=O)c2ccc(S(=O)(=O)NCCNc3nc(Nc4ccc(F)cc4)nc(N(C)C)n3)cc2)cc1 [24c]
- MIC (A. flavus (ATCC 9170)): > 250 µg/mL
- MIC [1]: > 250 µg/mL
- MIC (A. niger (ATCC 9029)): > 250 µg/mL
- MIC [2]: > 250 µg/mL
- MIC [3]: > 250 µg/mL
- MIC [4]: > 250 µg/mL
- MIC [5]: 125 µg/mL (≈ 211 µM)

Compound: CN(C)c1nc(NCCNS(=O)(=O)c2ccc(C(=O)/C=C/c3ccc(Cl)cc3)cc2)nc(Nc2ccc(F)cc2)n1 [24e]
- MIC (A. flavus (ATCC 9170)): > 250 µg/mL
- MIC [1]: > 250 µg/mL
- MIC (A. niger (ATCC 9029)): > 250 µg/mL
- MIC [2]: > 250 µg/mL
- MIC [3]: > 250 µg/mL
- MIC [4]: 125 µg/mL (≈ 210 µM)
- MIC [5]: > 250 µg/mL

Compound: Cc1ccc(C2CC(c3ccc(Nc4nc(NCCO)nc(Nc5ccc(Cl)cc5)n4)cc3)=Nc3c(N)nc(N)nc3N2)cc1 (stereo not shown) [33b]
- % Hemolysis [6]: 100%

Compound: COc1cc(/C=C/C(=O)c2cc(OC)c(OC)c(OC)c2)ccc1Oc1nc(NCCO)nc(N2CCOCC2)n1 [20d]
- GI50 (SR): 780 nM
- GI50 (LOX IMVI): 640 nM

Compound: CN(C)c1nc(NCCNS(=O)(=O)c2ccc(C3=Nc4c(N)nc(N)nc4NC(c4ccc(C(F)(F)F)cc4)C3)cc2)nc(Nc2ccc(F)cc2)n1 (stereo not shown) [31g]
- MIC (A. flavus (ATCC 9170)): > 250 µg/mL
- MIC [1]: 62.5 µg/mL (≈ 83.1 µM)
- MIC (A. niger (ATCC 9029)): > 250 µg/mL
- MIC [2]: > 250 µg/mL
- MIC [3]: > 250 µg/mL
- MIC [4]: 62.5 µg/mL (≈ 83.1 µM)
- MIC [5]: 250 µg/mL (≈ 333 µM)

Compound: COc1cc(C2CC(c3ccc(Cl)cc3)=Nc3c(N)nc(N)nc3N2)ccc1Oc1nc(Nc2ccc(F)cc2)nc(N(C)C)n1 (stereo not shown) [29e]
- MIC (A. flavus (ATCC 9170)): > 250 µg/mL
- MIC [1]: > 250 µg/mL
- MIC (A. niger (ATCC 9029)): > 250 µg/mL
- MIC [2]: > 250 µg/mL
- MIC [3]: > 250 µg/mL
- MIC [4]: > 250 µg/mL
- MIC [5]: 62.5 µg/mL (≈ 97.3 µM)

Compound: CN(C)c1nc(NCCNS(=O)(=O)c2ccc(C3=Nc4c(N)nc(N)nc4NC(c4ccc(C(F)(F)F)cc4)C3)cc2)nc(N2CCOCC2)n1 (stereo not shown) [30g]
- MIC (A. flavus (ATCC 9170)): > 250 µg/mL
- MIC [1]: > 250 µg/mL
- MIC (A. niger (ATCC 9029)): > 250 µg/mL
- MIC [2]: 125 µg/mL (≈ 172 µM)
- MIC [3]: 125 µg/mL (≈ 172 µM)
- MIC [4]: > 250 µg/mL
- MIC [5]: 250 µg/mL (≈ 344 µM)
- mortality (Galleria mellonella): ≤ 25%

Compound: Nc1nc(N)c2c(n1)NC(c1ccc(C(F)(F)F)cc1)CC(c1ccc(Nc3nc(NCCO)nc(Nc4ccc(Cl)cc4)n3)cc1)=N2 (stereo not shown) [33g]
- MIC (S. aureus ATCC 43300): 31.2 µg/mL (≈ 46.2 µM)
- GI50 (K-562): 640 nM
- GI50 (MOLT-4): 890 nM
